Source: article PMC10289903 (Investigational New Drugs, 2023)
Read-outs that look alike come from different tables or passages of the source.

Experiments:
[1] = test system: locally advanced or metastatic solid tumors; test: Preliminary antitumor activity (ORR, DCR, SD, PFS; RECIST v1.1); type: in vivo, human; details: for Duration of response: confirmed partial response
Procedure: Preliminary efficacy was assessed using objective response rate (ORR) in patients with measurable disease, disease control rate (DCR) and progression-free survival (PFS), all in accordance with RECIST v1.1 [17]. Responses for ORR required confirmation after at least 4 weeks.
After initiation of treatment, tumor burden was assessed at baseline and every 8 weeks (± 1 week) for the qd 5/9 dosing, and every 9 weeks (± 1 week) for the qd 5/2 treatment schedule, respectively, using computed tomography or magnetic resonance imaging of the chest and abdomen or pelvis.
The per protocol analysis set was defined as a subset of the full analysis set, excluding subjects having an important protocol deviation, to be used for analyses of efficacy endpoints if appropriate.

[2] = human, in vivo
Procedure: (§1) Analyses were performed for the bid dosing schedules and RP2D only.
(§2) Water was restricted from 1 h pre-dose until 1 h post-dose, except for the 240 mL of water administered with treatment.
(§3) Natural log-transformed AUC and Cmax were compared between fed/fasted conditions using a mixed effects analysis of variance model, which was fitted separately for each assessed dose. Estimates of the mean difference between treatments and corresponding 90% CI were calculated using a linear mixed effects model with a fixed effect for treatment (fed versus fasted) and a random effect for patients. Back transformed geometric means and 95% CIs were estimated for each condition.

[3] = test system: recurrent uterine serous carcinoma; details: 300 mg qd days 1–5 and 8–12 of a 21-day cycle, monotherapy, cited from earlier work
[4] = test system: platinum-resistant or platinum-refractory recurrent ovarian cancer; details: adavosertib 175 mg qd days 1, 2, 8, 9, 15, 16 of a 28-day cycle with gemcitabine; 95% CI 3.6–6.4; cited from earlier work
[5] = test system: platinum-resistant ovarian cancer; details: adavosertib with carboplatin; cited from earlier work
[6] = test system: recurrent ovarian cancer with progressive disease while receiving PARPi; details: cited from earlier work
[7] = clinical; details: human, in vivo
Procedure: as §1, §2, §3

[8] = qd 2.3: 250 mg qd 5/2 weekly (n=10)
[9] = qd 3.3: 300 mg 5/2 weekly (n=2)

C=CCn1c(=O)c2cnc(Nc3ccc(N4CCN(C)CC4)cc3)nc2n1-c1cccc(C(C)(C)O)n1 [adavosertib, Adavosertib]
Duration of response ([1]; 1 patient with anal carcinoma, qd 1.2 cohort): 6.9 months
Duration of response ([1]; 1 patient with thymoma, bid 2 cohort): 3.7 months
DCR, CP + PR + SD/n (%) ([1]; Total (N=62)): 48.4 CP + PR + SD/n (%)
Median PFS, months (95% CI) ([1]; Total (N=62)): 2.7 (2.0–3.8) months
ORR, CP + PR/n (%) ([1]; Total, 58 patients with measurable disease at baseline): 3.4 CP + PR/n (%)
Patients with confirmed (or unconfirmed) complete responses ([1]; all cohorts): None
Patients alive and progression-free at data cutoff ([1]; all cohorts (N=62)): 14 (22.6%) n (%)
Patients who had experienced a PFS event at data cutoff ([1]; all cohorts (N=62)): 47 (75.8%) n (%)
DCR, CP + PR + SD/n (%) ([1]; bid 2: 150 mg bid 5/9 (n=6)): 2 (33.3) CP + PR + SD/n (%)
Median PFS, months (95% CI) ([1]; bid 2: 150 mg bid 5/9 (n=6)): 1.9 (1.0–NC) months
Patients progression-free at 6 months after first dose ([1]; of 62 patients, 95% CI 10.0–32.2): 19.8%
DCR, CP + PR + SD/n (%) ([1]; qd 1.1: 200 mg qd 5/9 (n=5)): 2 (40.0) CP + PR + SD/n (%)
Median PFS, months (95% CI) ([1]; qd 1.1: 200 mg qd 5/9 (n=5)): 2.0 (0.6–NC) months
ORR, CP + PR/n (%) ([1]; qd 1.1: 200 mg qd 5/9 (n=5)): 0 CP + PR/n (%)
DCR, CP + PR + SD/n (%) ([1]; qd 1.2: 200 mg qd 5/2 (n=6)): 2 (33.3) CP + PR + SD/n (%)
Median PFS, months (95% CI) ([1]; qd 1.2: 200 mg qd 5/2 (n=6)): 2.7 (1.2–9.0) months
DCR, CP + PR + SD/n (%) ([1]; qd 2.1: 250 mg qd 5/9 (n=4)): 1 (25.0) CP + PR + SD/n (%)
Median PFS, months (95% CI) ([1]; qd 2.1: 250 mg qd 5/9 (n=4)): 1.9 (1.8–4.1) months
ORR, CP + PR/n (%) ([1]; qd 2.1: 250 mg qd 5/9 (n=4)): 0 CP + PR/n (%)
DCR, CP + PR + SD/n (%) ([1]; qd 2.2: 250 mg qd 5/2 (n=3)): 2 (66.7) CP + PR + SD/n (%)
Median PFS, months (95% CI) ([1]; qd 2.2: 250 mg qd 5/2 (n=3)): 3.7 (1.2–11.0) months
ORR, CP + PR/n (%) ([1]; qd 2.2: 250 mg qd 5/2 (n=3)): 0 CP + PR/n (%)
DCR, CP + PR + SD/n (%) [1, 8]: 3 (30.0) CP + PR + SD/n (%)
Median PFS, months (95% CI) [1, 8]: 2.1 (0.6–4.1) months
ORR, CP + PR/n (%) [1, 8]: 0 CP + PR/n (%)
DCR, CP + PR + SD/n (%) ([1]; qd 3.1: 300 mg qd 5/9 (n=4)): 3 (75.0) CP + PR + SD/n (%)
Median PFS, months (95% CI) ([1]; qd 3.1: 300 mg qd 5/9 (n=4)): 7.6 (2.7–9.3) months
ORR, CP + PR/n (%) ([1]; qd 3.1: 300 mg qd 5/9 (n=4)): 0 CP + PR/n (%)
DCR, CP + PR + SD/n (%) ([1]; qd 3.2: 300 mg qd 5/2 (n=16)): 11 (68.8) CP + PR + SD/n (%)
Median PFS, months (95% CI) ([1]; qd 3.2: 300 mg qd 5/2 (n=16)): 3.2 (2.1–5.0) months
ORR, CP + PR/n (%) ([1]; qd 3.2: 300 mg qd 5/2 (n=16)): 0 CP + PR/n (%)
DCR, CP + PR + SD/n (%) [1, 9]: 0 CP + PR + SD/n (%)
Median PFS, months (95% CI) [1, 9]: 2.6 (NC–NC) months
ORR, CP + PR/n (%) [1, 9]: 0 CP + PR/n (%)
AUC0–10, geometric LS mean (95% CI) ([2]; 125 mg): 1658.8 (1017.1, 2705.3) h*nmol/L
AUC0–10, geometric LS mean (95% CI) ([2]; 150 mg): 3228.0 (1698.9, 6133.3) h*nmol/L
AUC0–10, geometric LS mean (95% CI) ([2]; 300 mg): 5340.4 (65.0, 439027.6) h*nmol/L
Cmax ([2]; 300 mg): 819 nM
ORR ([3]; 95% CI 15.1–47.5): 29.4%
Median PFS [3]: 6.1 months
PFS [4]: 4.6 months
Response rate [5]: 66.7%
ORR ([6]; adavosertib alone, 90% CI 12–38): 23%
ORR ([6]; combination therapy with PARP inhibitor, 90% CI 16–44): 29%
Cmax ([7]; 125 mg): 276 nM
Cmax ([7]; 150 mg, Cmax, geometric LS mean (95% CI)): 464 nM
